Reference: the NIST ThermoML archive (doi:10.1021/acs.jced.6b00901)
Numbers after ± are expanded uncertainties.

Assay: refractive index (Na D-line) (dimensionless)
Conditions: 101.33 kPa, Liquid, Standard Abbe refractometry

SMILES | refractive index (283.15 K) | refractive index (288.15 K) | refractive index (293.15 K) | refractive index (298.15 K) | refractive index (303.15 K) | refractive index (308.15 K) | refractive index (313.15 K) | refractive index (318.15 K) | refractive index (323.15 K)
C=Cc1ccccc1 [styrene] | 1.5533 ± 0.0004 | 1.5505 ± 0.0004 | 1.5472 ± 0.0004 | 1.544 ± 0.0004 | 1.5409 ± 0.0004 | 1.538 ± 0.0004 | 1.5352 ± 0.0004 | 1.5321 ± 0.0004 | 1.5291 ± 0.0004
C1=CC2C3C=CC(C3)C2C1 (configuration not stated) [3a,4,7,7a-tetrahydro-4,7-methanoindene] |  |  |  |  |  | 1.5069 ± 0.0004 | 1.5045 ± 0.0004 | 1.5019 ± 0.0004 | 1.4991 ± 0.0004
CCOC(=O)c1ccccc1C(=O)OCC [diethyl phthalate] | 1.507 ± 0.0004 | 1.5048 ± 0.0004 | 1.5027 ± 0.0004 | 1.5005 ± 0.0004 | 1.4984 ± 0.0004 | 1.4962 ± 0.0004 | 1.4939 ± 0.0004 | 1.4917 ± 0.0004 | 1.4897 ± 0.0004
